In publication PMC10761937, “Functional engineering of human iPSC‐derived parasympathetic neurons enhances responsiveness to gastrointestinal hormones” (FEBS Open Bio, 2023):

Test system: NPY2R‐neurons
Test: Ca^2+ imaging, NPY2R‐neurons (iPSC‐derived)
Assay type: cell-based, human
Procedure: Before initiating differentiation, the iPSCs (1–2 × 10^5 cells·cm^−2; Cell lines and cell culture section) were transferred to 6‐well plates (Corning, Inc., Corning, NY, USA) coated with 2‐methacryloyloxyethyl phosphorylcholine (MPC) polymer (Lipidure CM5206E; NOF, Tokyo, Japan). The cells were maintained in mTeSR1 cGMP medium containing 10 μM Y‐27632 (Fujifilm Wako Pure Chemical Industries) for 2 or 3 days to form embryoid body (EBs) in a rotary shaker at 95 r.p.m. (OS‐762RC; Optime, Tokyo, Japan). Subsequently, iPSCs were differentiated into neural crest cells (NCCs), as previously reported. Briefly, NCCs were induced from Ebs using knockout serum replacement (KSR) medium and N2 medium with graded addition of nerve growth factors and signaling factors. KSR medium was composed of DMEM‐F12 (Fujifilm Wako Pure Chemical Industries), 20% KSR (Thermo Fisher Scientific), 1% NEAA, 1% monothioglycerol (Fujifilm Wako Pure Chemical Industries), and 1% P/S. N2 medium consisted of DMEM‐F12, 1% N2 supplement (Fujifilm Wako Pure Chemical Industries), 1% NEAA, and 1% P/S. When EB formation was considered day 0 of induction, the medium was changed at days 2, 5, 7, 9, and 12. […]

Substance: PYY: PYY (4400‐v; Peptide Institute, Inc.); PYY (3–36) in Ca2+ imaging
- Intracellular Ca^2+ concentration (traces) (100 nM PYY (PYY (3–36) in method), NPY2R‐neurons day 35, Fluo‐8 AM, Fig. S5C): increased intracellular Ca^2+ concentration
- Fluorescence intensity (ΔF stim/F 0) (PYY, 10 nM per Fig. 6 legend (100 nM in text and Fig. S5C), day 35, n = 10, Student's t‐test vs. 0 nM, Fig. 6E): significantly increased fluorescence intensity
